# Source: PubChem BioAssay AID1625 (Sanford-Burnham Center for Chemical Genomics, 2009)
# The source made the active and inactive calls.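 The calls were made as follows: active = z-score above 3 at 5 µM with at least 500 cells counted in the well; inconclusive = wells under 500 cells, flagged as cytotoxic or low count; inactive = the rest.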
# Test system: MIN6 insulin promoter-GFP reporter, high-content imaging
# Assay: insulin promoter activators in MIN6 cells, imaging, high-content screening, mouse beta cells (AID 1625)
row,SMILES,EC50
1,CC(=O)Nc1ccc(N=Cc2c(O)c(C(=O)Nc3ccccc3)cc3ccccc23)cc1,> 16 µM (inactive)
2,Oc1ccc(/C=N/Nc2ccnc3cc(Cl)ccc23)c(O)c1,> 16 µM (inactive)
3,N#CC1CC(c2ccc([N+](=O)[O-])cc2)=NN1c1ccc([N+](=O)[O-])cc1 (stereo unspecified),> 16 µM (inactive)
4,N#Cc1cccc(NC(=O)CSc2ccc3c4c(cccc24)C(=O)c2ccccc2-3)c1,14.7 µM (inactive)
5,Cc1cc2c(C(F)(F)F)cc(=O)oc2c2c1NCCC2,> 16 µM (inactive)
6,CC(C)OC(=O)CN1C(=O)S/C(=C/c2ccc(N3CCCCC3)o2)C1=O,1.7 µM
7,CC(C)(C)C(=O)/C=c1\s/c(=C\c2ccc(-c3ccc([N+](=O)[O-])cc3)o2)c(=O)n1CC(=O)NC(N)=O,0.829 µM
8,CCN(CC)c1ccc(/C=C(/C#N)C(=O)NC(C)C)o1,> 16 µM (inactive)
9,Cn1c(=O)c(NC2CCCCC2)c2c3c(cccc31)C(=O)c1ccccc1-2,2.67 µM
10,CCOC(=O)/C(=C\C=C1/Sc2cc(OCC)c(OCC)cc2N1CC)C(C)=O,6.72 µM
11,CCN(CC)c1ccc2cc(-c3nnc(-c4ccccc4)o3)c(=O)oc2c1,2.88 µM
12,CC(=O)c1c(N2CCOCC2)[nH]c(-c2ccccc2)nc1=S,13.5 µM (inactive)
13,CN1/C(=C\C=C(/C#N)C(=O)Nc2ccc(Cl)cc2)C(C)(C)c2ccccc21,> 16 µM (inactive)
14,CC(C)(C)c1ccc(OCC(=O)Nc2ccc3c4c(cccc24)C(=O)NC3=O)cc1,> 16 µM (inactive)
15,N#C/C(=C\c1ccc(N2CCOCC2)o1)c1nc2ccccc2[nH]1,3.42 µM
16,CCN1CCc2c(sc(NC(=O)Nc3ccc(Cl)c(Cl)c3)c2C(N)=O)C1,1.4 µM
17,Cc1oc(C)c2c(=O)ccc3c(c12)OC(N)=C(C#N)C3c1ccccc1 (stereo unspecified),> 16 µM (inactive)
18,Nc1c(C(=O)c2cccs2)sc2nsc(SCCN3CCCCC3)c12,9.62 µM
19,CCOC(=O)N1CCN(/C=C(\C#N)c2nc3ccccc3s2)CC1,> 16 µM (inactive)
20,Cc1c(-c2ccc(O)cc2)nc2nc(-c3ccccc3)c(-c3ccccc3)nn12,5.31 µM
21,COc1cc(N2CCCC2)c(OC)cc1/C=C(/C#N)c1cccc(F)c1,> 16 µM (inactive)
22,CCOC(=O)CC1C(=O)NCCN1c1nc2ccc(C)cn2c(=O)c1/C=C1\SC(=S)N(C(C)CC)C1=O (stereo unspecified),0.748 µM
23,Cc1ccc(S(=O)(=O)CCSc2nc(C)cc(C(F)(F)F)c2C#N)cc1,> 16 µM (inactive)
24,COc1cc([C@@H]2[C@H]3CNCC=C3C(C#N)=C(N)C2(C#N)C#N)ccc1OC(C)C,> 16 µM (inactive)
25,CCOCCCNc1nc2c(C)cccn2c(=O)c1/C=C1\SC(=S)N(CC(C)C)C1=O,> 16 µM (inactive)
26,CN1CC=C2C(C#N)=C(N)C(C#N)(C#N)C(c3ccsc3)C2C1 (stereo unspecified),10.4 µM (inactive)

row,SMILES,EC50
1,CN(C)c1ccc(/C=C/C(=O)c2c(O)c3ccccc3oc2=O)cc1,0.726 µM
2,Cn1cc(/C=C2\SC(=S)N(NC(=O)c3ccccc3Cl)C2=O)c2ccccc21,> 16 µM (inactive)
3,O=C(/C=C/c1cn(CC(O)CN2CCCCCC2)c2ccccc12)c1cccs1 (stereo unspecified),> 16 µM (inactive)
4,CCCCN1C(=O)/C(=C/C=C2/CC(C)(C)CN2C)SC1=S,6.8 µM
5,CCN1CC=C2C(C#N)=C(N)C(C#N)(C#N)[C@H](c3cccc(OC)c3OC)[C@H]2C1,3.78 µM
6,CN1/C(=C\C=C2C(=O)NC(=S)NC2=O)C(C)(C)c2ccccc21,3.89 µM
7,CC(C)(C)NC(=S)N/N=C\c1ccc(-c2ccc([N+](=O)[O-])cc2)o1,14.3 µM (inactive)
8,CC(=O)Nc1cccc(C(=O)/C=C/c2ccc(N(C)C)cc2)c1,12.9 µM (inactive)
9,CCOC(=O)c1c(-c2ccc(C)cc2)csc1NC(=O)/C(C#N)=C/c1ccc(O)c(OC)c1,> 16 µM (inactive)
10,CCCN1C(=O)S/C(=C/c2ccc(N3CCOCC3)o2)C1=O,8.06 µM
11,N#C/C(=C\c1ccc(N2CCCCC2)o1)C(N)=O,10.8 µM (inactive)
12,CCCCn1c(O)c(C(=O)/C=C/c2c[nH]c3ccccc23)c(=O)[nH]c1=O,> 16 µM (inactive)
13,CCCN1C(=O)/C(=C/c2c(N3CCNC(=O)C3CC(=O)OCC)nc3c(C)cccn3c2=O)SC1=S (stereo unspecified),> 16 µM (inactive)
14,COc1ccc2c(n1)Sc1nc3ccccc3nc1N2,> 16 µM (inactive)
15,O=C(C1=C(O)C(=O)N(c2nccs2)C1c1ccccc1)c1cc2ccccc2o1 (stereo unspecified),13.3 µM (inactive)
16,Cn1c(=O)c(N)c2c3c(c(Br)ccc31)C(=O)c1ccccc1-2,8.88 µM
17,CC[n+]1c(/C=C/C=C/N(C(C)=O)c2ccccc2)sc2cc(OC)ccc21,0.887 µM
18,COCCN1C(=O)/C(=C/c2ccc(N3CCCC3)cc2)SC1=S,12 µM (inactive)
19,Nc1c(C(=O)N/N=C/c2ccccc2Cl)oc2nc(-c3ccccc3)cc(-c3ccco3)c12,> 16 µM (inactive)
20,CN1/C(=C\C=C2/SC(=S)NC2=O)C(C)(C)c2ccccc21,9.29 µM
21,COCCCNc1c2c3c(cccc3[nH]c1=O)C(=O)c1ccccc1-2,4.03 µM
22,N#Cc1ccc(-c2ccccc2)nc1SCC(=O)c1cccc(Cl)c1,> 16 µM (inactive)
23,O=c1oc2cc(O)ccc2cc1-c1nc2c(s1)CCc1ccccc1-2,10.2 µM (inactive)
24,COc1ccc(NC(=O)/C(C#N)=C\c2ccc(N3CCOCC3)o2)cc1,9.14 µM
25,CN1CCS/C1=C/C=C1/SC(=S)N(Cc2ccccc2)C1=O,> 16 µM (inactive)
26,CCOC(=O)c1sc2cc([N+](=O)[O-])cc(SCC(C)C)c2c1N,> 16 µM (inactive)

row,SMILES,EC50
1,N#C/C(=C/c1ccc(-c2ccccc2)o1)c1nc(-c2cccs2)cs1,0.98 µM
2,Cc1ccc(N2C(=O)C3C(C(=O)c4ccccc4)=NN(c4ccccc4)C3C2=O)cc1 (stereo unspecified),12.6 µM (inactive)
3,Cc1[nH]c2ccccc2c1/C=N/Nc1ccc([N+](=O)[O-])cc1S(=O)(=O)Nc1ccc(Cl)cc1,> 16 µM (inactive)
4,O=C(/C=C/c1ccc(N2CCC(c3ccccc3)=N2)cc1)c1ccccc1,2.6 µM
5,CN1CC=C2C(C#N)=C(N)C(C#N)(C#N)[C@H](c3cccc(Cl)c3)C2C1 (stereo partly specified),8.14 µM
6,C=CCN1C(=O)c2cccc3c(N4CCCCC4)ccc(c23)C1=O,5.42 µM
7,CCN(CC)c1ccc(/C=C2\SC(=O)N(C(C)C)C2=O)o1,4.61 µM
8,N#C/C(=C/c1ccc(N2CCCCC2)o1)c1cccc(F)c1,8.75 µM
9,CCCNc1c(F)c(F)c2c(C)c3ccccc3nc2c1F,8.02 µM
10,CCCN1C(=O)/C(=C/C=C2\N(CC)c3ccccc3C2(C)C)SC1=S,> 16 µM (inactive)
11,O=S(=O)(Nc1cc2nc3ccccc3nc2n1Cc1ccccc1)c1ccc(Cl)cc1,7.17 µM
12,CN1/C(=C/C=C(C#N)C#N)C=Cc2ccccc21,> 16 µM (inactive)
13,COc1cccc(C2C3CN(C)CC=C3C(C#N)=C(N)C2(C#N)C#N)c1OC (stereo unspecified),12.3 µM (inactive)
14,Cn1c(/C(C#N)=C/c2ccc(-c3ccc(S(N)(=O)=O)cc3)o2)nc2ccccc21,> 16 µM (inactive)
15,Cc1ccnc(N/C=C(\C#N)c2nc(-c3cccc(Br)c3)cs2)c1,> 16 µM (inactive)
16,COc1ccc(CN=Cc2[nH]c3ccc(Br)c(Cl)c3c2O)cc1,> 16 µM (inactive)
17,N#C/C(=C/c1ccc(N2CCOCC2)o1)C(=O)Nc1ccccc1,9.79 µM
18,CCCCN1C(=O)/C(=C/C=C2\Oc3ccccc3N2CC)SC1=S,0.958 µM
19,O=c1c(Cl)c2oc3ccccc3nc-2c2ccccc12,> 16 µM (inactive)
20,Oc1c(C=NCc2ccc(F)cc2)[nH]c2ccc(Br)c(Cl)c12,> 16 µM (inactive)
21,Cc1cc(N/N=C/c2ccc([N+](=O)[O-])o2)nc2ccccc12,> 16 µM (inactive)
22,O=C1/C(=C/c2ccc(N3CCOCC3)o2)SC(=Nc2ccccc2)N1CCc1c[nH]c2ccccc12,0.702 µM
23,CN1C=CC2=C(C#N)C(N)C(C#N)(C#N)C(c3ccccc3)C2C1 (stereo unspecified),7.42 µM
24,CC(=O)c1sc2nc(-c3cccs3)cc(C(F)(F)F)c2c1N,7.56 µM
25,CCN(CC)c1ccc2cc(C(=O)Nc3ccccn3)c(=O)oc2c1,> 16 µM (inactive)
26,CC(C)NC(=O)/C(C#N)=C/c1ccc(N(C)C)o1,8.07 µM

row,SMILES,EC50
1,Cc1nn(C)cc1N1C(=O)c2cccc3c(N)ccc(c23)C1=O,> 16 µM (inactive)
2,Cc1ccc(CNc2ccc3c(c2)OCO3)cc1,> 16 µM (inactive)
3,CCN1C(=O)/C(=C/C=C2\N(CC)c3cc(S(=O)(=O)N(C)C)ccc3N2c2ccccc2)SC1=S,6.67 µM
4,Cc1oc(C)c2c(=O)ccc3c(c12)OC(N)=C(C#N)C3c1ccc(F)cc1 (stereo unspecified),> 16 µM (inactive)
5,C(=C/c1nccc2c1[nH]c1ccccc12)/c1ccc2c(c1)OCO2,11.9 µM (inactive)
6,CN(C)c1ccc(/C=C2\C(=N)N3C(=NC2=O)Sc2cc(S(C)(=O)=O)ccc23)cc1,> 16 µM (inactive)
7,COc1ccc(/C=C2\C(=O)NC(=S)N2C(=O)c2ccc(F)cc2)cc1,> 16 µM (inactive)
8,CCCCN1C(=O)/C(=C/C=C2\SCCN2C)SC1=S,9.18 µM
9,CCN1CC=C2C(C#N)=C(N)C(C#N)(C#N)C(CCc3ccccc3)C2C1 (stereo unspecified),8.02 µM
10,Cc1noc(/C=C/c2ccc(-c3ccccc3Cl)o2)c1[N+](=O)[O-],5.6 µM
11,CC(C)/C=C1\CC/C(=C\c2ccc(N(C)C)cc2)C1=O,> 16 µM (inactive)
12,C=CCSc1nnc(C)c(/C=C/Nc2ccc(Cl)cc2)n1,> 16 µM (inactive)
13,O=S(=O)([O-])CCC[n+]1c(/C=C\Nc2ccccc2)oc2ccc(-c3ccccc3)cc21,3.34 µM
14,N#C/C(=C\c1ccc(-c2ccc(C(=O)O)cc2)o1)c1nc2ccccc2[nH]1,> 16 µM (inactive)
15,O=[N+]([O-])c1ccc(N2N=C(c3ccco3)CC2c2ccccc2)cc1 (stereo unspecified),> 16 µM (inactive)
16,N#CC(C#N)=C1C=C2C=C(N3CCOCC3)CCC2CC1 (stereo unspecified),2.56 µM
17,COc1ccc(C(=O)/C=C/c2ccc(N(C)C)cc2)c(OC)c1,6.31 µM
18,O=C1S/C(=C\c2ccc(N3CCOCC3)o2)C(=O)N1Cc1ccc(F)cc1,> 16 µM (inactive)
19,CCN(CC)c1ccc(/C=C/C(=O)c2ccc(Br)cc2)cc1,7.06 µM
20,Cc1c2ccccc2nc2c(F)c(NC(C)C)c(F)c(F)c12,> 16 µM (inactive)
21,CCN(CC)c1ccc2cc(-c3nc4ccccc4[nH]3)c(=O)oc2c1,0.281 µM
22,CN1CCN(C2=CC3=CC(=C(C#N)C#N)CCC3CC2)CC1 (stereo unspecified),3.41 µM
23,C=CCN1C=CC(=CC=C(C#N)C#N)C=C1,10.4 µM (inactive)
